RP-LC retention time data for 79 compounds are collected here from the METLIN SMRT retention time set (Domingo-Almenara et al. 2019).

Each structure is given as a SMILES string.

This series is described as follows: gradient 5% acetonitrile 3 min, to 50% in 2 min, to 85% in 15 min, held 3 min, 100 µL/min. The note with it: column: Zorbax Extend-C18 2.1 x 50 mm; eluents: water / acetonitrile, 0.1% formic acid. Put shortly:
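Pure standards were analyzed in mixtures of ~100 molecules using HPLC coupled to a quadrupole time-of-flight mass spectrometer, in both positive and negative ionization mode. Separation used a Zorbax Extend-C18 column (2.1 × 50 mm, 1.8 μm) at 100 μL/min, with water and acetonitrile each containing 0.1% formic acid. Dead and dwell volumes were 40 μL and 900 μL, and data were collected over 3 months. Retention time was read from computationally picked adduct peaks, each inspected manually.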
In the case of `Clc1cccc(-c2nc(-c3ccc4c(c3)ncn4CCN3CCOCC3)no2)c1`, the RP-LC retention time came out at 676 s. The result for `Cc1cc(C)c2c(N3CCSCC3)nc(C(=O)NCCN3CCCC3)nc2n1` reads 600 s; that for `COc1c2c(c(OC)c3c1c(=O)c1ccccc1n3C)OCO2`, 767 s; that for `CC(C)(C)NC(=O)N1CC(N(Cc2ccncc2)S(C)(=O)=O)C1`, 573 s. To `COc1cccc(-c2csc(-c3nnn(-c4ccccc4)c3N)n2)c1` belongs 1040 s.

As to `COc1ccc(-c2cc3c4nn(CC(=O)Nc5cccc(C)c5C)c(=O)n4ccn3n2)cc1`, the RP-LC retention time came out at 840 s. `COc1ccc2cccc(NC(=O)c3c[nH]c4ccccc34)c2n1` yielded an RP-LC retention time of 986 s. Compound `COc1cccc(N2CCN(C(=O)c3cc4c(=O)n(C)ccc4n3C)CC2)c1` yielded an RP-LC retention time of 700 s. In the case of `Cc1nc(C)c(C(=O)N2CCC(C3CCN(S(C)(=O)=O)CC3)C2)s1` (centres undefined), the RP-LC retention time was 656 s. Turning to `COC(=O)CNC(=O)Cc1c(C)nn(-c2nc(-c3ccc(Cl)cc3)cs2)c1C`, the RP-LC retention time came to 1010 s. Compound `COc1ncc(C(=O)NCc2ccc(C(F)(F)F)cc2)cn1` displayed an RP-LC retention time of 773 s. Take `CCN1C(=O)COc2ccc(-c3noc(-c4ccc(C)cc4)n3)cc21`: the RP-LC retention time worked out at 1230 s.

Consider `COCCCNC(=O)CCCn1c2ccccc2c2cnn(C)c(=O)c21`, for which the RP-LC retention time stood at 688 s.

In turn, `Cc1nn(-c2ccc(N3CCCC3)nn2)c(C)c1CCC(=O)N1CCCC1` displayed an RP-LC retention time of 599 s. Take `Cc1cc(C)c(C(=O)N2CCC(CC(=O)NC3CCCCCC3)CC2)[nH]1`: the RP-LC retention time came out at 800 s. In the case of `O=C(Nc1c(-c2ccc(F)cc2)nc2ccccn12)c1ccc2c(c1)OCO2`, the RP-LC retention time was determined as 651 s. On to `CCOC(=O)c1c(N)n(-c2ccccc2OC)c2nc3ccccc3nc12`, for which the RP-LC retention time came to 691 s. As to `Cc1cc(F)ccc1NC(=O)c1cn2c(n1)CCCC2`, the RP-LC retention time stood at 600 s.

In turn, `O=C(c1ccc(S(=O)(=O)c2ccc(Br)cc2)nc1)N1CCN(c2ccccn2)CC1` displayed an RP-LC retention time of 673 s. Regarding `COc1ccc(CCS(=O)(=O)NCC(c2cccn2C)N2CCOCC2)cc1` (centres undefined), the RP-LC retention time worked out at 594 s. In the case of `O=C(c1nnc(-c2ccc(S(=O)(=O)N3CCCC3)cc2)o1)N1CCN(C2CCCCC2)CC1`, the RP-LC retention time amounted to 658 s. With `Cn1c(=O)n(CCN2CCCCC2)c(=O)c2c1nc1n2CCCN1c1ccc(Cl)cc1`, the RP-LC retention time is 668 s. `Cc1cccc(NC(=O)N2CCC(c3nc(C(=O)N(C)C)c(C)o3)CC2)c1`: the RP-LC retention time was determined as 689 s.

The compound `CCN(CC)S(=O)(=O)c1ccc(NC(=O)N2CCCC(C(=O)Nc3cccc(Cl)c3)C2)s1` (centres undefined) had an RP-LC retention time of 996 s.

As to `Cc1nnc(-c2ccc(S(=O)(=O)NCc3ccco3)o2)o1`, the RP-LC retention time amounted to 722 s. For `CCN(CC)S(=O)(=O)N1CCC(C(=O)NCc2ccc(OC)cc2)CC1`, the RP-LC retention time turned out to be 795 s. Take `O=C(NCc1ccco1)c1ccc(NC(=O)C2CCC2)cc1N1CCCCC1`: the RP-LC retention time came to 763 s. To `COc1ccc(-n2c(=O)n(C)c(=O)c3cc(C(=O)Nc4cc(F)ccc4C)cnc32)cc1` belongs 893 s; to `CCCCS(=O)(=O)N1CCC(C2CCN(C(=O)NC)CC2)C1` (centres undefined), 682 s; to `CCNC(=O)C1CCCN(c2nc3ncn(CC(=O)Nc4ccc(CC)cc4)c(=O)c3s2)C1` (centres undefined), 661 s.

Regarding `COc1ccc2nc3oc(C(=O)NCCCN4CCCC(C)C4)cc3cc2c1` (centres undefined), the RP-LC retention time stood at 934 s.

`Cc1cccc(NC(=O)C2CCN(C(=O)C3Sc4ccccc4NC3=O)CC2)c1` (centres undefined): the RP-LC retention time was determined as 790 s. For `COc1ccc(C(=O)N2C[C@@H]3C[C@H](NC(=O)c4cccs4)[C@H]2C3)cc1F`, the RP-LC retention time stood at 733 s. With `CCOC(=O)c1c(C)[nH]c(CCC(=O)NCCN(C)C)c1C`, the RP-LC retention time is 591 s. For the compound `Nc1nc(N)c2nc(-c3cccc(O)c3)cnc2n1`, the RP-LC retention time came to 599 s. The compound `Cc1noc(C)c1Cc1c(C(=O)NCC23CCC=C2N(C)C(=O)CC3)noc1C` (centres undefined) displayed an RP-LC retention time of 768 s. `Cc1ccc2c(c1)N(C(=O)CCC(=O)NCCCN1CCN(C3CCCCC3)CC1)CC(C)O2` (centres undefined) came in with an RP-LC retention time of 603 s. `COCCNC(=O)c1cc2c(=O)n(Cc3ccccc3)ccc2s1` showed an RP-LC retention time of 719 s. In turn, `CCOc1ccc(-c2noc(Cc3nnc(-c4cccc(F)c4)o3)n2)cc1` displayed an RP-LC retention time of 1090 s. `Cc1cc(N2CCN(c3ccccn3)CC2)n2nc(C(F)(F)F)c(-c3ccccc3Cl)c2n1` displayed an RP-LC retention time of 833 s.

Take `CC(C)Cn1c(=O)c2ccccc2n(Cc2nc(-c3ccccc3Cl)no2)c1=O`: the RP-LC retention time came out at 1170 s.

With `O=C(Cn1c(Cc2ccc(Cl)cc2)nc2ccccc21)N1CCCCCC1`, the RP-LC retention time turned out to be 739 s. Compound `CCc1nc2cc3c(cc2n1CC(=O)NC(C)c1ccc2c(c1)OCCCO2)OCCO3` (centres undefined) yielded an RP-LC retention time of 628 s. Compound `Cn1c(=O)c(N2CCC(NC(=O)Nc3ccc(F)cc3)CC2)nc2ccccc21` yielded an RP-LC retention time of 849 s. Regarding `Cn1cnc(S(=O)(=O)N2CCC(c3noc(-c4ccccc4)n3)C2)c1` (centres undefined), the RP-LC retention time stood at 748 s. Regarding `O=C(NCCN1CCOCC1)c1cc2sccc2n1Cc1ccc(Cl)cc1`, the RP-LC retention time was determined as 713 s.

`CN(C)C[C@@H]1CN(C2CCOCC2)C[C@H]1NC(=O)C1(c2ccccc2)CC1` had an RP-LC retention time of 556 s. Turning to `Cc1cccc(Cn2cc(C(=O)O)c3ccccc3c2=O)c1`, the RP-LC retention time worked out at 857 s. For the compound `O=C(CN1CCN(Cc2ccccc2)C1=O)N1CCN(C2CCCCC2)CC1`, the RP-LC retention time came out at 601 s. To `CCc1nc2c(NC(=O)c3ccc(OC)cc3)cccn2n1` belongs 819 s.

For the compound `CCOC(=O)c1c(C)[nH]c(C(=O)N2CCC(C(C)C(=O)NCc3ccc(N(C)C)cc3)CC2)c1C` (centres undefined), the RP-LC retention time was 635 s. As for `COCCC1(NC(=O)C2CC2)CCN(S(=O)(=O)c2c(C)noc2C)CC1`, the RP-LC retention time amounted to 740 s.

For `Cc1nc(-c2ccccc2F)sc1C(=O)NC(C)C`, the RP-LC retention time came out at 888 s. The result for `Cc1ccsc1C(=O)N1CC(Oc2cccc(-c3nc(-c4ccccc4)no3)c2)C1` reads 1280 s. The result for `CCc1noc(NC(C)=O)c1-c1ccc(OC)c(S(=O)(=O)Nc2ccc(C)cc2Cl)c1` reads 894 s. With `COc1ccc(-c2nc(-c3ccc4oc(-c5ccccc5)nc4c3)no2)cn1`, the RP-LC retention time is 1430 s. For `CCc1nc2sc(C(C)C)nn2c1S(=O)(=O)N1CCCCC1`, the RP-LC retention time amounted to 1020 s.

Compound `CCOc1ccc(-c2noc(Cn3ncn4nc(-c5ccc(OC)cc5)cc4c3=O)n2)cc1OC` came in with an RP-LC retention time of 1040 s. The result for `CNC(=O)c1cccc(Nc2c(-c3ccc(SC)cc3)nc3cnccn23)c1` reads 692 s. In the case of `Cc1ccc(C2NC(=O)N(CC(=O)Nc3ccc(Br)cc3F)C3=C2C(=O)OC3)cc1` (centres undefined), the RP-LC retention time stood at 861 s.

`O=C(Nc1nc(-c2ccc(Cl)cc2Cl)cs1)c1ccno1` had an RP-LC retention time of 981 s. To `O=C(Nc1ccc(F)c(Cl)c1)Nc1nccn(-c2ccc(F)cc2)c1=O` belongs 1010 s; to `Cc1nnc(N2CCC(C(=O)NCCCN3CCCC3=O)CC2)c2nn(-c3ccccc3)c(C)c12`, 622 s. In turn, `COC1CCC12CCN(C(=O)c1ccc(Cc3c(C)noc3C)o1)CC2` (centres undefined) yielded an RP-LC retention time of 800 s. In turn, `CC(C)CNC(=O)C1CCCN(c2nccn3nc(-c4ccccc4Cl)cc23)C1` (centres undefined) returned an RP-LC retention time of 872 s.

For the compound `CN(C)C[C@@H]1CN(S(C)(=O)=O)C[C@H]1NC(=O)C1(c2ccccc2)CCCC1`, the RP-LC retention time was 663 s. In turn, `CCOc1nc2ccccc2nc1N1CCCC(C(=O)Nc2cccc(Cl)c2)C1` (centres undefined) returned an RP-LC retention time of 1290 s. To `Cc1cc(Cl)ccc1S(=O)(=O)N1CC(Cc2nncn2C2CCCC2)C1` belongs 808 s. The compound `O=C(C1CCN(S(=O)(=O)c2cccc3nonc23)CC1)N1CCc2ccccc2C1` yielded an RP-LC retention time of 913 s. Consider `O=C(Cc1ccccc1F)N1CCCC1c1nc(-c2cccc(C(F)(F)F)c2)no1` (centres undefined), for which the RP-LC retention time stood at 1110 s.

For the compound `CCC(=O)N1CCc2cc(N3CC(C(=O)NC4CCCCC4)CC3=O)ccc21` (centres undefined), the RP-LC retention time was found to be 728 s. For `Cc1cccc(C)c1NC(=O)NC1CCN(c2nc3ccccc3n(C)c2=O)CC1`, the RP-LC retention time is 838 s. For the compound `Fc1ccc(-n2cc(-c3noc(-c4ccccc4)n3)nn2)cc1`, the RP-LC retention time stood at 1040 s. With `CCOC(=O)c1c(S(=O)(=O)N2CCC(C(=O)NCCc3ccccc3)CC2)c(C)n(C)c1C`, the RP-LC retention time came to 826 s. `O=C(NCc1cccc(Cl)c1)c1ccc(CN2CCN(C3CCCC3)C(=O)C2=O)cc1` registered an RP-LC retention time of 785 s. The result for `COc1ccc2c(c1)C=C(C(=O)NCc1ccc(OC)c(OC)c1)CO2` reads 805 s.

For `O=C(c1cn2c(n1)COCC2)N(Cc1ccccc1)Cc1ccco1`, the RP-LC retention time was found to be 716 s. With `CC1CN(c2ccc(Br)cc2)c2nc3c(c(=O)n(CCCO)c(=O)n3C)n2C1` (centres undefined), the RP-LC retention time was 833 s. On to `Cc1ccc(-c2nc3ccc(Cl)cn3c2Nc2ccccc2C)cc1`, for which the RP-LC retention time turned out to be 904 s.
